# According to patent publication US20220204563A1, “DELIVERY PEPTIDES AND METHODS OF USING THE SAME” (NATIONAL INSTITUTE FOR BIOTECHNOLOGY IN THE NEGEV LTD., priority 2019, published 2022):
# Primed or numbered codes have the meaning given here. No end group written: not given here. TAMRA = tetramethylrhodamine fluorescent label; FITC′ = not defined here
# How the values were obtained:
# [1] = test system: M. rosenbergii early vitellogenic oocytes; experiment: In vitro incubation of ovary pieces with fluorophore-labelled peptides, confocal imaging of oocytes; type: cell-based, Macrobrachium rosenbergii; details: for Distribution of TAMRA-labelled peptide in the oocyte: ovary pieces incubated with Vg-TAMRA or scVg-TAMRA separately, 6 μM, confocal; for Endocytosis into oocytes, distribution of the two fluorescent-labelled peptides: simultaneous incubation with Vg-TAMRA and control-FITC, 6 μM each; for Fluorescent intensity in oocytes compared to Vg246-253-TAMRA: ovary slices in vitro, TAMRA emission
# Method: (§1) Ovary pieces from in-vitro or in-vivo experiments were washed with Schneider's drosophila medium without the peptides for 5 min. Then, the pieces were torn apart on a slide in one drop of the medium to better view the individual oocytes. The slides were inspected, and images were taken by a confocal microscope FV1000 (Olympus) at ×60 magnification. The excitation laser wavelength was 561 nm for the TAMRA labelled peptides and 488 nm for FITC labelled control peptides, and the emission was obtained at […], respectively.
# M. rosenbergii ovary pieces of 1-3 mm with oocytes diameter of ˜150 μm (early vitellogenic ovaries) were incubated in a sterile 24-wells plate, 2 cm^2 growth area each well (Biofil®) in a biological hood. Each piece was incubated with 250 μl Schneider's drosophila culture medium with osmolality fixed to 420 mOsm/L and supplemented with FBS (10%), PSA (final concentration: Penicillin—100 units/mL, streptomycin—0.1 mg/mL, Amphotericin B—0.25 μg/mL and insulin 10 mg/ml insulin in 25 mM HEPES). The ovary pieces were incubated either with Vg-TAMRA or scVg-TAMRA or with both Vg-TAMRA and scVg-FITC simultaneously (6 μM each). The plate was incubated at room temperature for 24 and 48 hours. To test dsRNA piggybacking, 55 pmole dsRNA was conjugated to 275 pmole either Vg-TAMRA or scVg-FITC peptides. Ovary pieces were incubated with the dsGFP-Vg-TAMRA or dsGFP-scVg-FITC conjugates and cultured as stated above.
# To evaluate the endocytosis capability of oocytes with respect to the newly designed Vg-derived peptides, an in vitro experiment was performed. Vg-derived and control peptides, labeled with TAMRA fluorophore, were detected by confocal microscopy. Both peptides were detected in the vicinity of the oocyte membrane (FIG. 4). […] In order to get the highest certainty regarding the internalization specificity of the Vg-derived peptides, the Vg and control peptides were labelled with an additional fluorophore (FIGS. 4E-4H), Vg peptide was labelled with TAMRA (FIGS. 4E and 4H), while the control peptide has been labelled with FITC molecule (FIG. 4F). A similar result was obtained in this experiment showing distinct distribution of the two fluorescent-labelled peptides.
# Further, a dose dependent test with respect to Vg-derived peptides penetration into oocytes using Vg descending concentrations was performed (FIG. 5). Unlike the control scrambled peptide (scVg), the Vg peptide maintained similar pattern of distribution in the oocyte throughout the descending concentrations (FIG. 5, upper row).
# The inventors further examined the capability and efficacy of shorter/partial sequences derived from the peptide of the invention to being internalized into M. rosenbergii oocytes. Further, the inventors examined whether homologous peptides derived from a different decapod crustacean, e.g., Litopenaeus vannamei, would also be internalized into M. rosenbergii oocytes.
# The mentioned peptides were incubated in vitro with ovary slices to evaluate their internalization. […] In contrast to that, the Vg-derived peptides were capable to enter the oocyte as they were observed beyond the follicular cells inside the oocytes (red dots, FIGS. 11B-11G). […] Moreover, both L. vannamei Vg derived peptides were capable to endocytose into M. rosenbergii oocytes (FIGS. 11F-11G).
# [2] = test system: oocytes; experiment: In vivo assay: peptide injection into the hemolymph of reproductive females, confocal imaging of oocytes and gills; parameters: species or system Macrobrachium rosenbergii; details: for Fluorescent emission in oocytes after injection: mixture of both peptides injected, 5 μg/gr body weight, oocytes dissected 24 h after injection
# Method: as §1
# Solution containing the culture medium, Vg-TAMRA and scVg-FITC peptides were injected (5 μg/gr body weight) into the hemolymph sinus at the base of the fifth walking leg of a M. rosenbergii reproductive females (14.3±0.4 gr, with opaque white to yellowish ovary, FIG. 2, left). For the injection, a manual micro dispenser syringe was used (Drummond®). After injection, the animals were kept at 28° C. for 24 hours in the culture facility for freshwater prawn M. rosenbergii, at Ben-Gurion University. Vg-dsEGFR or Vg-dsPAX6 conjugates (5:1 molar ratio for conjugation, 5 μg dsRNA/g body weight) were injected twice a week at the first two weeks. From the third week, the injections were performed once a week. The females were monitored daily and upon appearance of the reproductive molt, the females were released to a tank with a male for fertilization. The embryos' development on the pleopods of their mother (FIG. 2, middle) were monitored under stereoscope, and a fraction was collected for RNA extraction and subsequent quantitative PCR analysis.
# To determine whether the Vg-TAMRA peptide has the capability to specifically in vivo internalize into oocytes, a mixture of the Vg-TAMRA and the control-FITC peptides were injected into the prawn circulatory system. […] To verify that the two peptides did circulate through the prawn female body, the prawn gills were dissected and examined under the confocal microscope.
# [3] = Dynamic light scattering (DLS) of dsRNA-peptide conjugates; type: physicochemical; details: 700 bp dsRNA, dsRNA:peptide ratio 1:30 (FIG. 6B dots)
# Method: Constant amount of dsRNA (25 pmole) solution was mixed with an increasing amount of peptide solution in an Eppendorf vial (˜1.5 mL). The total conjugation reaction volume was completed to 15 μl with DEPC treated DDW. The solutions were incubated at room temperature for 20 minutes. To evaluate peptide-dsRNA conjugation, a 1.3% agarose gel was prepared in TAE buffer. Conjugates were mixed with equal volume of loading buffer (50% glycerol and 0.5 M EDTA). Peptide-dsRNA conjugates were separated for 30 minutes at 120 V. Fluorescent emission of conjugates in gels were scanned by using a Typhoon FLA 9500 gel system (GE Healthcare®).
# In order to verify whether the Vg-derived peptide was capable to piggyback and internalize a large molecule such as a dsRNA into the oocytes, a conjugation approach between the peptide and dsRNA was developed. The Vg-TAMRA and the control-FITC peptides were synthesized with a cationic poly lysine-histidine tail (KH) to allow electrostatic interactions between the peptides and the negatively charged dsRNA. The dsRNA-peptide complexes prepared at different molar ratios (peptide/dsRNA ratio: 1, 5, 10, 20 and 30) were characterized with two different assays: dynamic light scattering (DLS) and separation on agarose gel.
# dsRNA of 700 bp (dsEGFR) and another one a mix of 200 and 230 bp dsRNA (dsPAX6) were prepared (FIG. 3A). […]
substance,measurement,setting,value
CDKNIIKPAYGSYKYVEAHQESVLRK-TAMRA (CDKNIIKPAYGSYKYVEAHQESVLRK-{TAMRA}) [Vg-TAMRA],Fluorescence intensity in comparison to the control peptide,"[1]; descending concentrations 12-0.75 μM, fluorescence and overlay images",higher intensity of the red TAMRA emission
same,Distribution of TAMRA-labelled peptide in the oocyte,[1],distributed mainly at the cytosolic side of the oocyte membrane
same,Fluorescent signal in oocytes,[1]; peptide concentration 0.75 μM,No signal was detected
same,Fluorescent signal in oocytes,[1]; peptide concentration 1.5 μM,clear fluorescent signal
same,Fluorescent signal in oocytes,[1]; peptide concentration 6 μM,clear fluorescent signal
same,Fluorescent signal in oocytes,[1]; peptide concentration 12 μM,clear fluorescent signal
same,"Endocytosis into oocytes, distribution of the two fluorescent-labelled peptides",[1],clearly observed
same,Detection of peptide in gills after injection,[2]; early vitellogenic female injected simultaneously with both peptides,can be detected in the gills
same,Fluorescent emission in oocytes after injection,[2],a clear 564 nm emission was seen inside the oocytes
"CQAPVKLIAYDKNKYEHEYRISVSGK-FITC (CQAPVKLIAYDKNKYEHEYRISVSGK-{FITC′}) [scVg-FITC, reference compound]",Internalization into M. rosenbergii oocytes,[1]; ovary slices incubated with Vg-derived peptide TAMRA and scVg-FITC simultaneously,observed only on the outer area of the oocyte
same,"Endocytosis into oocytes, distribution of the two fluorescent-labelled peptides",[1],only on the outer surface of the membrane
same,Detection of peptide in gills after injection,[2]; in vivo,can be detected in the gills
same,Fluorescent emission in oocytes after injection,[2],absent from oocytes
"CQAPVKLIAYDKNKYEHEYRISVSGK-TAMRA (CQAPVKLIAYDKNKYEHEYRISVSGK-{TAMRA}) [scVg-TAMRA, reference compound]",Distribution of TAMRA-labelled peptide in the oocyte,[1],mainly dispersed on the outer surface of the oocyte
same,Fluorescent signal in oocytes,[1]; peptide concentration 0.75 μM,No signal was detected
same,Fluorescent signal in oocytes,[1]; peptide concentration 1.5 μM,no apparent signal
same,Fluorescent signal in oocytes,[1]; peptide concentration 6 μM,weak fluorescent signal
same,Fluorescent signal in oocytes,[1]; peptide concentration 12 μM,weak fluorescent signal
DKNIIKPAYGSYKYVEAK-TAMRA (DKNIIKPAYGSYKYVEAK-{TAMRA}) [Vg237-253-TAMRA],Fluorescent intensity in oocytes compared to Vg246-253-TAMRA,[1],Weaker florescent intensity
DKNIIKPK-TAMRA (DKNIIKPK-{TAMRA}) [Vg237-244-TAMRA],Fluorescent intensity in oocytes compared to Vg246-253-TAMRA,[1],Weaker florescent intensity
KHKHKHKHKHKHKHKHKHCDKNIIKPAYGSYKYVEAHQESVLRK-TAMRA (KHKHKHKHKHKHKHKHKHCDKNIIKPAYGSYKYVEAHQESVLRK-{TAMRA}) [KH9-Vg],Particle radius (DLS),[3],~100 nm
Vg235-260-TAMRA: 26 amino acid VgR interacting region peptide; probably the Vg-TAMRA peptide of SEQ ID NO: 22 (CDKNIIKPAYGSYKYVEAHQESVLRK; not fully specified (C-terminus); also: TAMRA label),Fluorescent intensity in oocytes compared to Vg246-253-TAMRA,[1],Weaker florescent intensity
